In patent publication US11364264B2, “Ex vivo antigen-presenting cells or activated CD-positive T cells for treatment of cancer” (priority 2016, dated 2022):
Like-named read-outs stand apart in the source and are kept apart here.

Legend:
[1] = test system: AE17 mouse mesothelioma cell line; type: in vivo; settings: for Proportion of CD8+ T cells in total live cells compared to saline: one week after last treatment
[2] = test system: Luc-40L mesothelioma cancer cells; assay: Luc-40L mesothelioma model, survival (Example 4); type: in vivo, mouse; settings: VIC-008 20 μg and/or AMD3100 1 μg/g body weight once a week for four weeks
[3] = test system: GFP-Foxp3 expressing CD4+ splenocytes (Treg cells); settings: AMD3100 5 μg/ml, 24 hours
[4] = test system: AE17 mouse mesothelioma cell line; assay: Ex vivo restimulation with recombinant mesothelin, intracellular IFN-γ in CD8+ T cells, AE17 mice; settings: restimulated with recombinant mesothelin ex vivo
[5] = test system: Luc-AE17 mesothelioma cancer cells; assay: Luc-AE17 mesothelioma model, survival (Example 4); type: in vivo, mouse; settings: VIC-008 20 μg and/or AMD3100 1 μg/g body weight once a week for four weeks
[6] = test system: AE17 mouse mesothelioma cell line; assay: AE17 intraperitoneal malignant mesothelioma model: tumor weight and survival (Example 5); type: in vivo; settings: VIC-008 20 μg per mouse, AMD3100 1 mg/kg i.p. weekly x4
[7] = test system: 40L mouse mesothelioma cell line; assay: 40L intraperitoneal malignant mesothelioma model: tumor weight and survival (Example 5); type: in vivo; settings: VIC-008 20 μg per mouse, AMD3100 1 mg/kg i.p. weekly x4
[8] = test system: 40L mouse mesothelioma cell line; assay: Ex vivo restimulation with recombinant mesothelin, intracellular IFN-γ in CD8+ T cells, 40L mice; settings: splenic CD8+ T cells, restimulated with recombinant mesothelin ex vivo
[9] = test system: 40L mouse mesothelioma cell line; assay: Immune profiling by flow cytometry of tissues from 40L tumor-bearing mice; type: in vivo; settings: for Proportion of CD8+ T cells in total live cells compared to saline: one week after last treatment

c1cc(CN2CCCNCCNCCCNCC2)ccc1CN1CCCNCCNCCCNCC1 [AMD3100]
Cell ratio of CD8+ T cells to Treg cells compared to saline ([1]; lymph nodes): significantly increased | IL-2+ CD40L+ cells among the Foxp3+ CD25− Treg population ([1]; lymph nodes): significantly more cells | Proportion of PD-1-expressing CD8+ T cells compared to saline ([1]; lymph nodes): significantly fewer | Ratio of CD25− cells to CD25+ cells within the Foxp3+ population ([1]; lymph nodes): significantly increased | Treg in the lymph nodes ([1]; lymph nodes): generally reduced | Proportion of CD8+ T cells in total live cells compared to saline ([1]; lymph nodes): did not increase | Proportion of PD-1-expressing CD8+ T cells compared to saline ([1]; spleens): significantly fewer | Proportion of CD8+ T cells in total live cells compared to saline ([1]; spleens): did not increase | Proportion of PD-1-expressing CD8+ T cells compared to saline ([1]; tumors): significantly fewer | Proportions of Treg in tumors compared to saline ([1]; tumors): significantly decreased | Ratio of CD8+ T cells to Treg in tumors compared to saline ([1]; tumors): increased | Proportion of CD8+ T cells in total live cells compared to saline ([1]; tumors): did not increase | Survival of tumor-bearing mice compared to saline [2]: slight effect on survival | Ratio of the proportion of CD25− cells to CD25+ cells in the Foxp3+ CD4+ population ([3]; no anti-CD3/CD28 stimulation): did not change | Conversion of Foxp3+ CD25− Treg into IL-2+ CD40L+ cells ([3]; with anti-CD3/CD28 antibodies (1 μg/ml), P=0.0015): converted more | Ratio of the proportion of CD25− cells to CD25+ cells in the Foxp3+ CD4+ population ([3]; with anti-CD3/CD28 antibodies (1 μg/ml), P=0.0017): significantly increased | Mesothelin-specific IFN-γ expression in CD8+ T cells compared to saline ([4]; lymph node CD8+ T cells): did not enhance | Mesothelin-specific IFN-γ expression in CD8+ T cells compared to saline ([4]; splenic CD8+ T cells): did not enhance | Survival of tumor-bearing mice compared to saline [5]: slight effect on survival | Animal survival compared to saline [6]: only modest benefit to survival | Animal survival compared to saline [7]: only modest benefit to survival | Mesothelin-specific IFN-γ expression in CD8+ T cells compared to saline [8]: did not enhance | Proportion of PD-1-expressing CD8+ T cells compared to saline ([9]; spleens): significantly fewer | Proportions of Treg cells ([9]; spleens): did not alter | Proportion of CD8+ T cells in total live cells compared to saline ([9]; spleens): did not increase | IL-2+ CD40L+ cells among the Foxp3+ CD25− Treg population ([9]; tumors): significantly more cells | Proportion of PD-1-expressing CD8+ T cells compared to saline ([9]; tumors): significantly fewer | Proportions of Treg in tumors compared to saline ([9]; tumors): significantly decreased | Ratio of CD8+ T cells to Treg in tumors compared to saline ([9]; tumors): increased | Ratio of CD25− cells to CD25+ cells within the Foxp3+ population ([9]; tumors): significantly increased | Proportion of CD8+ T cells in total live cells compared to saline ([9]; tumors): did not increase
